# Source: patent publication US20220356170A1, “SREBP INHIBITOR COMPRISING A THIOPHENE CENTRAL RING” (Capulus Therapeutics, LLC, priority 2019, published 2022)
# Columns and labels:
# Assay in all cases: Cancer cell growth inhibition, Sulforhodamine B
# Type in all cases: cell-based
# SNB75 = settings: Homo sapiens, SNB-75; SNB75 (brain), 72 hr; Non-Responder Cell Lines with IC50 >10 uM or Not Determined
# How it was run: (§1)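 SRB protein-stain readout after 72 hr compound exposure; 0.1% DMSO final; six-point 10-fold series (stocks 10 mM–0.1 uM in DMSO), n=1 per point. Endpoints: IC50, GI50, IC10, TGI, LC50, IC90, GI90 where calculable.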
# RDES = settings: RD-ES; RDES (bone), 72 hr; Non-Responder Cell Lines with IC50 >10 uM or Not Determined
# How it was run: as §1
# MIAPACA2 = settings: Homo sapiens, MIA PaCa-2; MIAPACA2 (pancreas), 72 hr; Non-Responder Cell Lines with IC50 >10 uM or Not Determined
# How it was run: as §1
# SF295 = settings: Homo sapiens, SF-295, 72 h, SF295 (brain)
# How it was run: as §1
# HEPG2 = settings: Homo sapiens; HEPG2 (liver), 72 hr; Responder Cell Lines
# How it was run: as §1
# RAMOS = settings: Homo sapiens, 72 h, RAMOS (hematological)
# How it was run: as §1
# C33A = settings: Homo sapiens, C-33-A; 72 hr; Responder Cell Lines
# How it was run: as §1
# JEG3 = settings: Homo sapiens, JEG-3; JEG3 (placenta), 72 hr; Responder Cell Lines
# How it was run: as §1
# UO31 = settings: Homo sapiens, UO-31; UO31 (kidney), 72 hr; Non-Responder Cell Lines with IC50 >10 uM or Not Determined
# How it was run: as §1
# JIMT1 = settings: Homo sapiens, JIMT-1; JIMT1 (breast), 72 hr; Responder Cell Lines
# How it was run: as §1
# MT3 = settings: MT-3, 72 h, MT3 (breast)
# How it was run: as §1
# MHHES1 = settings: Homo sapiens, MHH-ES-1, 72 h
# How it was run: as §1
# K-562 = settings: Homo sapiens, K562; K-562 (hematological), 72 hr; Responder Cell Lines
# How it was run: as §1
# HCT116 = settings: Homo sapiens, HCT-116; HCT116 (colon), 72 hr; Responder Cell Lines
# How it was run: as §1
# MDAMB435 = settings: Homo sapiens, MDA-MB-435; MDAMB435 (skin), 72 hr; Responder Cell Lines
# How it was run: as §1
# TE671 = settings: Homo sapiens, TE-671, 72 h, TE671 (muscle)
# How it was run: as §1
# ACHN = settings: Homo sapiens; ACHN (kidney), 72 hr; Responder Cell Lines
# How it was run: as §1
# DLD1 = settings: Homo sapiens, DLD-1; DLD1 (colon), 72 hr; Non-Responder Cell Lines with IC50 >10 uM or Not Determined
# How it was run: as §1
# 22RV1 = settings: Homo sapiens; 22RV1 (prostate), 72 hr; Responder Cell Lines
# How it was run: as §1
# SKOV3 = settings: Homo sapiens, SK-OV-3; SKOV3 (ovary), 72 hr; Non-Responder Cell Lines with IC50 >10 uM or Not Determined
# How it was run: as §1
# WSU-NHL = settings: Homo sapiens, 72 h, WSU-NHL (hematological)
# How it was run: as §1
# KASUMI-1 = settings: Homo sapiens; KASUMI-1 (hematological), 72 hr; Non-Responder Cell Lines with IC50 >10 uM or Not Determined
# How it was run: as §1
# [1] = Non-Responder Cell Lines with IC50 >10 uM or Not Determined
smiles,measurement,setting,value
"CC(C)(O)c1cc(-c2csc(-c3ccc(C(=O)N4CCC(O)CC4)cc3Cl)c2)ccn1 [Compound 1, (3-chloro-4-(4-(2-(2-hydroxypropan-2-yl)pyridin-4-yl)thiophen-2-yl)phenyl)(4-hydroxypiperidin-1-yl)methanone]",IC50,SNB75,> 10 µM
same,IC50,RDES,> 10 µM
same,IC50,MIAPACA2,> 10 µM
same,IC50,SF295; [1],> 10 µM
same,IC50,SF295; Responder Cell Lines,< 10 µM
same,IC50,HEPG2,< 10 µM
same,IC50,RAMOS; [1],> 10 µM
same,IC50,RAMOS; Responder Cell Lines,< 10 µM
same,IC50,C33A,< 10 µM
same,IC50,JEG3,< 10 µM
same,IC50,UO31,> 10 µM
same,IC50,JIMT1,< 10 µM
same,IC50,MT3; [1],> 10 µM
same,IC50,MT3; Responder Cell Lines,< 10 µM
same,IC50,"MHHES1; MHHES1 (bone), Non-Responder Cell Lines with IC50 >10 uM or Not Determined",> 10 µM
same,IC50,"MHHES1; MHHESI (bone), Responder Cell Lines",< 10 µM
same,IC50,K-562,< 10 µM
same,IC50,HCT116,< 10 µM
same,IC50,MDAMB435,< 10 µM
same,IC50,TE671; [1],> 10 µM
same,IC50,TE671; Responder Cell Lines,< 10 µM
same,IC50,ACHN,< 10 µM
same,IC50,DLD1,> 10 µM
same,IC50,22RV1,< 10 µM
same,IC50,SKOV3,> 10 µM
same,IC50,WSU-NHL; [1],> 10 µM
same,IC50,WSU-NHL; Responder Cell Lines,< 10 µM
same,IC50,KASUMI-1,> 10 µM
